{"source": "PubChem BioAssay AID2060611", "about": "(Molecular Pharmacology Branch, DTP, NCI, 2025)", "test_system": "628569-122-R-J1-PDC complex spheroid viability", "assay": "Anticancer human tumor 628569-122-R-J1-PDC patient-derived head and neck squamous carcinoma cell line growth inhibition [CLK]", "conditions": "for viability, T/C: stronger effect = lower value", "in_short": "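Multi-cell-type spheroids combined patient-derived tumor cells with HUVEC endothelial cells and human mesenchymal stem cells. Paired agents were dosed in half-log steps down from about clinical Cmax, or from 10 microM where Cmax was unknown.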", "note": "Values joined by “and” are separate entries in the source; they are usually repeats but may differ in a detail not shown here. Equal entries are not always repeated.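 Further: spheroids exposed to agents for seven days before readout.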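 Wherever viability, T/C is given: 100% = DMSO vehicle control viability.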", "data": [{"smiles": "C=CC(=O)Nc1cc(Nc2nccc(-c3cn(C)c4ccccc34)n2)c(OC)cc1N(C)CCN(C)C", "values": [{"measurement": "viability, T/C", "setting": "compound 0.000949 µM", "result": "81.8% and 77.8%"}, {"measurement": "viability, T/C", "setting": "compound 0.003 µM", "result": "105% and 86.5%"}, {"measurement": "viability, T/C", "setting": "compound 0.00949 µM", "result": "92.6% and 78.3%"}, {"measurement": "viability, T/C", "setting": "compound 0.03 µM", "result": "73.7% and 73.6%"}, {"measurement": "viability, T/C", "setting": "compound 0.0949 µM", "result": "98.9% and 71.4%"}, {"measurement": "viability, T/C", "setting": "compound 0.3 µM", "result": "71.7% and 55.5%"}, {"measurement": "IC50", "setting": "curve of compound", "result": "> 300", "unit": "nM"}]}, {"smiles": "CC(CO)NC(=O)c1cc(-c2ccc(Cl)cc2)nn(-c2cnn(C)c2)c1=O", "note": "(stereo not drawn)", "values": [{"measurement": "viability, T/C", "setting": "compound 0.0316 µM", "result": "112% and 116%"}, {"measurement": "viability, T/C", "setting": "compound 0.1 µM", "result": "123% and 158%"}, {"measurement": "viability, T/C", "setting": "compound 0.316 µM", "result": "177% and 202%"}, {"measurement": "viability, T/C", "setting": "compound 1 µM", "result": "169% and 217%"}, {"measurement": "viability, T/C", "setting": "compound 3.16 µM", "result": "175% and 243%"}, {"measurement": "viability, T/C", "setting": "compound 10 µM", "result": "149% and 181%"}, {"measurement": "IC50", "setting": "curve of compound", "result": "> 10000", "unit": "nM"}]}, {"smiles": "NC(=O)C(=Cn1cnc(-c2cc(C(F)(F)F)cc(C(F)(F)F)c2)n1)c1cncnc1", "values": [{"measurement": "viability, T/C", "setting": "compound 0.00949 µM", "result": "71.1% and 74%"}, {"measurement": "viability, T/C", "setting": "compound 0.03 µM", "result": "66.9% and 66.1%"}, {"measurement": "viability, T/C", "setting": "compound 0.0949 µM", "result": "52.1% and 56.7%"}, {"measurement": "viability, T/C", "setting": "compound 0.3 µM", "result": "63.8% and 49.3%"}, {"measurement": "viability, T/C", "setting": "compound 0.949 µM", "result": "44.3% and 35.1%"}, {"measurement": "viability, T/C", "setting": "compound 3 µM", "result": "41.7% and 33.4%"}, {"measurement": "IC50", "setting": "curve of compound", "result": "666 nM and 210 nM"}]}, {"smiles": "CC1COCCN1c1cc(C2(S(C)(=N)=O)CC2)nc(-c2ccnc3[nH]ccc23)n1", "note": "(stereo not drawn) + CN1CCN(c2cc(C(=O)Nc3cc4cc(-c5cnn(C)c5)ccc4cn3)ccn2)CC1", "values": [{"measurement": "IC50", "setting": "curve of first compound, second compound 0.0316 µM", "result": 2620, "unit": "nM"}, {"measurement": "IC50", "setting": "curve of first compound, second compound 0.1 µM", "result": 1420, "unit": "nM"}, {"measurement": "IC50", "setting": "curve of first compound, second compound 0.316 µM", "result": "< 31.6", "unit": "nM"}, {"measurement": "IC50", "setting": "curve of first compound, second compound 1 µM", "result": "< 31.6", "unit": "nM"}, {"measurement": "IC50", "setting": "curve of first compound, second compound 3.16 µM", "result": "< 31.6", "unit": "nM"}, {"measurement": "IC50", "setting": "curve of first compound, second compound 10 µM", "result": "< 31.6", "unit": "nM"}, {"measurement": "viability, T/C", "setting": "second compound 0.0316 µM, first compound 0.0316 µM", "result": 101, "unit": "%"}, {"measurement": "viability, T/C", "setting": "second compound 0.0316 µM, first compound 0.1 µM", "result": 95.9, "unit": "%"}, {"measurement": "viability, T/C", "setting": "second compound 0.0316 µM, first compound 0.316 µM", "result": 79.1, "unit": "%"}, {"measurement": "viability, T/C", "setting": "second compound 0.0316 µM, first compound 1 µM", "result": 60.8, "unit": "%"}, {"measurement": "viability, T/C", "setting": "second compound 0.0316 µM, first compound 3.16 µM", "result": 45.9, "unit": "%"}, {"measurement": "viability, T/C", "setting": "second compound 0.0316 µM, first compound 10 µM", "result": 46.1, "unit": "%"}, {"measurement": "viability, T/C", "setting": "second compound 0.1 µM, first compound 0.0316 µM", "result": 68.2, "unit": "%"}, {"measurement": "viability, T/C", "setting": "second compound 0.1 µM, first compound 0.1 µM", "result": 75.6, "unit": "%"}, {"measurement": "viability, T/C", "setting": "second compound 0.1 µM, first compound 0.316 µM", "result": 59, "unit": "%"}, {"measurement": "viability, T/C", "setting": "second compound 0.1 µM, first compound 1 µM", "result": 53.6, "unit": "%"}, {"measurement": "viability, T/C", "setting": "second compound 0.1 µM, first compound 3.16 µM", "result": 45.4, "unit": "%"}, {"measurement": "viability, T/C", "setting": "second compound 0.1 µM, first compound 10 µM", "result": 41.2, "unit": "%"}, {"measurement": "viability, T/C", "setting": "second compound 0.316 µM, first compound 0.0316 µM", "result": 34.3, "unit": "%"}, {"measurement": "viability, T/C", "setting": "second compound 0.316 µM, first compound 0.1 µM", "result": 41.9, "unit": "%"}, {"measurement": "viability, T/C", "setting": "second compound 0.316 µM, first compound 0.316 µM", "result": 36, "unit": "%"}, {"measurement": "viability, T/C", "setting": "second compound 0.316 µM, first compound 1 µM", "result": 38.4, "unit": "%"}, {"measurement": "viability, T/C", "setting": "second compound 0.316 µM, first compound 3.16 µM", "result": 27.2, "unit": "%"}, {"measurement": "viability, T/C", "setting": "second compound 0.316 µM, first compound 10 µM", "result": 24.7, "unit": "%"}, {"measurement": "viability, T/C", "setting": "second compound 1 µM, first compound 0.0316 µM", "result": 9.71, "unit": "%"}, {"measurement": "viability, T/C", "setting": "second compound 1 µM, first compound 0.1 µM", "result": 9.35, "unit": "%"}, {"measurement": "viability, T/C", "setting": "second compound 1 µM, first compound 0.316 µM", "result": 7.68, "unit": "%"}, {"measurement": "viability, T/C", "setting": "second compound 1 µM, first compound 1 µM", "result": 7.29, "unit": "%"}, {"measurement": "viability, T/C", "setting": "second compound 1 µM, first compound 3.16 µM", "result": 7.44, "unit": "%"}, {"measurement": "viability, T/C", "setting": "second compound 1 µM, first compound 10 µM", "result": 10.3, "unit": "%"}, {"measurement": "viability, T/C", "setting": "second compound 3.16 µM, first compound 0.0316 µM", "result": 8.58, "unit": "%"}, {"measurement": "viability, T/C", "setting": "second compound 3.16 µM, first compound 0.1 µM", "result": 5.23, "unit": "%"}, {"measurement": "viability, T/C", "setting": "second compound 3.16 µM, first compound 0.316 µM", "result": 6.65, "unit": "%"}, {"measurement": "viability, T/C", "setting": "second compound 3.16 µM, first compound 1 µM", "result": 9.55, "unit": "%"}, {"measurement": "viability, T/C", "setting": "second compound 3.16 µM, first compound 3.16 µM", "result": 9.82, "unit": "%"}, {"measurement": "viability, T/C", "setting": "second compound 3.16 µM, first compound 10 µM", "result": 9.3, "unit": "%"}, {"measurement": "viability, T/C", "setting": "second compound 10 µM, first compound 0.0316 µM", "result": 4.43, "unit": "%"}, {"measurement": "viability, T/C", "setting": "second compound 10 µM, first compound 0.1 µM", "result": 4.71, "unit": "%"}, {"measurement": "viability, T/C", "setting": "second compound 10 µM, first compound 0.316 µM", "result": 5.12, "unit": "%"}, {"measurement": "viability, T/C", "setting": "second compound 10 µM, first compound 1 µM", "result": 4.78, "unit": "%"}, {"measurement": "viability, T/C", "setting": "second compound 10 µM, first compound 3.16 µM", "result": 4.88, "unit": "%"}, {"measurement": "viability, T/C", "setting": "second compound 10 µM, first compound 10 µM", "result": 4.15, "unit": "%"}]}]}
